“Also recorded” adds a separate entry of the source.
How the values were obtained:
[1] = test system: human platelet-mediated thrombosis; experiment: In vivo human platelet thrombus formation in VWF HA1 mutant mice (laser injury)
[2] = biological target: T1, interleukin-2 inducible tyrosine kinase (ITK) (Homo sapiens, UniProt Q08881); settings: cited from earlier work
T1 sequence (Q08881 1-620): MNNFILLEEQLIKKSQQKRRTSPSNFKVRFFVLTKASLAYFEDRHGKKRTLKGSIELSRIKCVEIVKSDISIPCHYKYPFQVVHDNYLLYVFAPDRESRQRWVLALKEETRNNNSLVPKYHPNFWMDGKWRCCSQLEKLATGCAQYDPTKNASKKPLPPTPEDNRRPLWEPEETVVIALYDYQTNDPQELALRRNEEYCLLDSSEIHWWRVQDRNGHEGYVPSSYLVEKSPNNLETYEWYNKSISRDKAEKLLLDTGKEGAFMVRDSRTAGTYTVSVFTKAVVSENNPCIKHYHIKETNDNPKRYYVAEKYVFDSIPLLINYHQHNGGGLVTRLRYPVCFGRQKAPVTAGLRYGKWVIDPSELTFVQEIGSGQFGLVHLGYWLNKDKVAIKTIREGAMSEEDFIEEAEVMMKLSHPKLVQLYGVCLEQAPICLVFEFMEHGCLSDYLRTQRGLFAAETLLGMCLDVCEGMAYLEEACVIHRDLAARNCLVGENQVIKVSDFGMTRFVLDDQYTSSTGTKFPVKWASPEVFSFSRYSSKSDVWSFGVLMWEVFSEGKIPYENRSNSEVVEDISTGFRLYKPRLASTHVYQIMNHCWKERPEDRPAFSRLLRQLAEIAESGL

[3] = test system: regulatory T cell (Treg); experiment: Effect on Treg development
[4] = test system: Th17 cells; experiment: Effect on Th17 cells
[5] = test system: B cell receptor; experiment: In vitro potency in whole blood, inhibition of signals through the B cell receptor (CD69); assay type: cell-based; settings: whole blood from four healthy donors, 2 hours incubation, anti-human IgD 18 hours, read-out: EC50, CD69 on gated CD19+ B cells
[6] = test system: NK cells; settings: cited from earlier work
[7] = test system: NK cells (CD56+/CD107a+) with MEC-1 cells; experiment: NK cell degranulation/ADCC whole blood assay with obinutuzumab-opsonised MEC-1 cells; assay type: cell-based, human; settings: 0.1, 1 and 10 μM, MEC-1 opsonised with obinutuzumab 1 μg/mL, 4 hours
[8] = test system: CD8+ T cell; experiment: Effect on CD8+ T cell viability
[9] = biological target: epidermal growth factor receptor (EGFR) (Homo sapiens, UniProt P00533); settings: in vitro; cited from earlier work
Sequence of epidermal growth factor receptor (EGFR) (P00533 25-1210): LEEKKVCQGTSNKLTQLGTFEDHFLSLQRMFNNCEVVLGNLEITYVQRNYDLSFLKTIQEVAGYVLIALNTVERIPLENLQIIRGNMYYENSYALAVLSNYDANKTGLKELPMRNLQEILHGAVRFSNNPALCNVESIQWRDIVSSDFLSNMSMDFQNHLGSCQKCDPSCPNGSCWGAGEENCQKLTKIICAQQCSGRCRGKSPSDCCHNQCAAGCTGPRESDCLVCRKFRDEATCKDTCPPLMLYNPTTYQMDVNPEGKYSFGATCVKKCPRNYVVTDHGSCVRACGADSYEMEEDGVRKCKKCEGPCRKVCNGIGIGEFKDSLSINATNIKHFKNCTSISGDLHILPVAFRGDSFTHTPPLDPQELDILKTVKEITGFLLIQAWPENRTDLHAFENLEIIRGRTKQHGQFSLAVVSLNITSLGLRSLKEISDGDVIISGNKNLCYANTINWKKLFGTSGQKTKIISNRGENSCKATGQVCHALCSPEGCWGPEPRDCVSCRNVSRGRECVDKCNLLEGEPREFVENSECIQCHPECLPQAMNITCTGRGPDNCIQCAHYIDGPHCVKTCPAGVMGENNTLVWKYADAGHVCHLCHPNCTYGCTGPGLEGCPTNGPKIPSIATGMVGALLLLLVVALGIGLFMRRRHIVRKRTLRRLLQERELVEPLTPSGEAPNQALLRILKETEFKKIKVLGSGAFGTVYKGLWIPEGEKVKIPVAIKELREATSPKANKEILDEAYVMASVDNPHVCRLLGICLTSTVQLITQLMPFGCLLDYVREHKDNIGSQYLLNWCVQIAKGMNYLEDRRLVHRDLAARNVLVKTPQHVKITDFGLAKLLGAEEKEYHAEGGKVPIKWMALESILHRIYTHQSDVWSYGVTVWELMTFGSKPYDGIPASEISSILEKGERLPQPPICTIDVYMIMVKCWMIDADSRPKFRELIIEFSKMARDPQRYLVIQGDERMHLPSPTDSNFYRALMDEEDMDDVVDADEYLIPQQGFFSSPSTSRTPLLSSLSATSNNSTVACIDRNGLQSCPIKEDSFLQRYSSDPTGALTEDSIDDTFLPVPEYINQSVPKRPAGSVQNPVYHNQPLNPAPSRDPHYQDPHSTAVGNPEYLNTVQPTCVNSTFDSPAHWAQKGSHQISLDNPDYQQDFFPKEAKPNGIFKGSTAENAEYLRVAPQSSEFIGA

[10] = test system: cytochrome P450 (CYP) enzymes 3A4/5 and 2D6; settings: cited from earlier work
[11] = test system: platelet collagen receptor glycoprotein VI (GPVI); experiment: GPVI platelet aggregation; assay type: cell-based, human
[12] = test system: CLL; settings: cited from earlier work
[13] = Phase 1, previously treated CLL, monotherapy
[14] = Phase 1 portion, relapsed/refractory CLL, n=13

Molecule: C=CC(=O)Nc1cccc(Nc2nc(Nc3ccc(OCCOC)cc3)ncc2F)c1 [CC-292]
- effect on human platelet-mediated thrombus formation [1]: interfere with thrombus formation; also recorded: effect similar to ibrutinib

Molecule: C=CC(=O)N1CCC[C@@H](n2nc(-c3ccc(Oc4ccccc4)cc3)c3c(N)ncnc32)C1 [ibrutinib]
- ITK binding [2]: irreversibly binds ITK
- effect on Treg development [3]: strongly increases Treg development; also recorded: increase in Treg development
- effect on Th17 cells [4]: strongly inhibits Thl7 cells; also recorded: profound inhibition
- EC50 [5]: 6.1 nM
- effect on rituximab ADCC mediated by NK cells [6]: antagonizes rituximab antibody-dependent cell mediated cytotoxicity (ADCC); also recorded: undesirably antagonizes rituximab ADCC effects
- percentage of CD56+/CD107a+ NK cells / antagonism [7]: strong reduction
- effect on CD8+ T cell viability [8]: strongly affects CD8 T cell viability at higher doses; also recorded: strong, negative effect
- EGFR inhibition [9]: inhibits epidermal growth factor receptor (EGFR)
- CYP substrate [10]: substrate for both cytochrome P450 (CYP) enzymes 3A4/5 and 2D6
- GPVI platelet aggregation [11]: significantly inhibits GPVI platelet aggregation
- IC50 ([11]; Homo sapiens, Platelet): 130 nM

Molecule: obinutuzumab: humanized monoclonal antibody directed against CD20
- MRD-negative complete response, number [12, 13]: 1
- response rate [12, 13]: 62%
- patients with Grade 3 IRRs [12, 14]: 15%
- patients with Grade 4 IRRs [12, 14]: no Grade 4
- patients with IRRs, all grade [12, 14]: 100%
- patients developing IRR ([12]; Phase 2 portion, relapsed/refractory CLL): 95%
- Grade 3 reactions among those ([12]; Phase 2 portion): 25%
- cases developing symptoms of hypotension ([12]; Phase 2 portion): 60%
